# Reference: ChEMBL document CHEMBL1126121, “Non-prostanoid thromboxane A2 receptor antagonists with a dibenzoxepin ring system. 1” (J Med Chem, 1992)
# Experiments:
# [1] = target: T1, Thromboxane A2 receptor (Homo sapiens) (UniProt P21731); experiment: Binding affinity for thromboxane A2 receptor by measuring ability to displace [3H]U-46619 from guinea pig platelets at 1 uM; conditions: Cavia porcellus, target entry is the homologue from another species
# T1 sequence (whole entry): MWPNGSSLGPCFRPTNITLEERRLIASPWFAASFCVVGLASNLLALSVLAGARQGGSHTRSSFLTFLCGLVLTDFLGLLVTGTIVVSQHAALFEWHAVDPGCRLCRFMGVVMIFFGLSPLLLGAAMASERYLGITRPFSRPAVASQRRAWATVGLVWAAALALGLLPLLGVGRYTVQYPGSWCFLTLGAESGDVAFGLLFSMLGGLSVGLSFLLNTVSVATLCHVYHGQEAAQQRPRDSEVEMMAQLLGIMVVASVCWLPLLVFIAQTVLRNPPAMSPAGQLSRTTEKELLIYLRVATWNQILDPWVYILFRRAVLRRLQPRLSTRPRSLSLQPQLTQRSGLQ
# [2] = target: T1, Thromboxane A2 receptor (Homo sapiens); experiment: Binding affinity for thromboxane A2 receptor by measuring its ability to displace [3H]U-46619 from guinea pig platelets at 0.1 uM; conditions: Cavia porcellus, target entry is the homologue from another species
# [3] = target: T1, Thromboxane A2 receptor (Homo sapiens); experiment: Inhibitory effect against binding thromboxane A2 receptor on guinea pig platelets using [3H]U-46619 as radioligand at 1 uM concentration; conditions: Cavia porcellus, target entry is the homologue from another species
# [4] = target: T2, Thromboxane-A synthase (Homo sapiens) (UniProt P24557); experiment: Inhibitory activity against thromboxane A2 synthase obtained from bovine platelet microsomes at 10 uM; conditions: Bos taurus, target entry is the homologue from another species
# T2 sequence (whole entry): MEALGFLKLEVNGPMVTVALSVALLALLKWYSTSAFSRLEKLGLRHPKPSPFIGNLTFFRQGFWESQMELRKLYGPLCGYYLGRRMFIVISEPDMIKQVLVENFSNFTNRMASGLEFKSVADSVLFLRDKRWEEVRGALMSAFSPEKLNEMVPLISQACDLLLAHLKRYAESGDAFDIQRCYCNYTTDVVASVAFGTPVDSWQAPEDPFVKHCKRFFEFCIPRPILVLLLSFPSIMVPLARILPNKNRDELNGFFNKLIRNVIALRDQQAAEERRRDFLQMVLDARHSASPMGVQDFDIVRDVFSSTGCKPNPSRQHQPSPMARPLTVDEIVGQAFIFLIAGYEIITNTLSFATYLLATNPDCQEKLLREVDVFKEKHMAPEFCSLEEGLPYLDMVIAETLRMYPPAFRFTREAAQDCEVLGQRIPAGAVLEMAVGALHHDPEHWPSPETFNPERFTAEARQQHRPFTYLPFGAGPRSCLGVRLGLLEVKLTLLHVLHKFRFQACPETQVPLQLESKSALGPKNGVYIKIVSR
# [5] = system: Thromboxane-A synthase (Bos taurus); experiment: Inhibitory effect against thromboxane A2 synthase from bovine platelets at 10 uM concentration
# [6] = system: Cavia porcellus; experiment: Compound was tested ex vivo for it''s inhibition of U-46619 induced platelet aggregation in the guinea pig after 2 hr of administration at dose 10 mg/kg; format: functional
# [7] = system: Cavia porcellus; experiment: Inhibitory effect of the compounds on U-46619-induced platelet aggregation ex vivo in guinea pig at the dose of 10 mg/kg 2 hr after oral administration; format: functional
# [8] = system: Cavia porcellus; experiment: Inhibitory effect of the compounds on U-46619-induced platelet aggregation ex vivo in guinea pig at the dose of 10 mg/kg 4 hr after oral administration; format: functional
# [9] = system: Cavia porcellus; experiment: Compound was tested ex vivo for it''s inhibition of U-46619 induced platelet aggregation in the guinea pig after 4 hr of administration at dose 10 mg/kg; format: functional
# [10] = system: Cavia porcellus; experiment: Compound was tested ex vivo for it's inhibition of U-46619 induced platelet aggregation in the guinea pig after 2 hr of administration at dose 10 mg/kg; format: functional
# [11] = system: Cavia porcellus; experiment: Inhibitory effect of the compounds on U-46619-induced platelet aggregation ex vivo in guinea pig at the dose of 10 mg/kg 7 hr oral after administration; format: functional
compound,measurement,setting,value
Cc1ccc2c(c1)C(SCCNS(=O)(=O)c1ccccc1)c1ccccc1CO2 (stereo unspecified),inhibition,[1],27%
same,inhibition,[2],1%
same,inhibition,[3],27%
same,inhibition,[4],-10%
same,inhibition,[5],-10%
COc1ccc(S(=O)(=O)NCCSC2c3ccccc3COc3ccc(C(=O)O)cc32)cc1OC (stereo unspecified),inhibition,[1],91%
same,inhibition,[2],49%
same,inhibition,[3],91%
same,inhibition,[4],70%
same,inhibition,[5],70%
COc1cccc(OC)c1C(=O)NCCSC1c2ccccc2COc2ccc(C(=O)O)cc21 (stereo unspecified),inhibition,[1],72%
same,inhibition,[2],20%
same,inhibition,[3],72%
O=C(O)c1ccc2c(c1)C(SCCNS(=O)(=O)c1ccc(C(F)(F)F)cc1)c1ccccc1CO2 (stereo unspecified),inhibition,[1],92%
same,inhibition,[2],70%
same,inhibition,[3],92%
same,inhibition,[4],-9%
same,inhibition,[5],-9%
O=C(NCCSC1c2ccccc2COc2ccc(C(=O)O)cc21)Nc1ccccc1 (stereo unspecified),inhibition,[1],98%
same,inhibition,[2],67%
same,inhibition,[3],98%
same,inhibition,[4],58%
same,inhibition,[5],58%
Cc1ccc(S(=O)(=O)NCCSC2c3ccccc3COc3ccc(C(=O)O)cc32)cc1 (stereo unspecified),inhibition,[1],93%
same,inhibition,[2],76%
same,inhibition,[3],93%
same,inhibition,[4],77%
same,inhibition,[5],77%
O=C(O)c1ccc2c(c1)C(SCCNS(=O)(=O)c1cccc3cccnc13)c1ccccc1CO2 (stereo unspecified),inhibition,[1],90%
same,inhibition,[2],44%
same,inhibition,[3],90%
same,inhibition,[4],63%
same,inhibition,[5],63%
O=C(O)c1ccc2c(c1)C(SCCNS(=O)(=O)c1ccc(Cl)cc1)c1ccccc1CO2 (stereo unspecified),inhibition,[1],94%
same,inhibition,[2],64%
same,inhibition,[3],94%
same,inhibition,[4],79%
same,inhibition,[5],79%
O=C(O)c1ccc2c(c1)OCc1ccccc1C2SCCNS(=O)(=O)c1ccccc1 (stereo unspecified),inhibition,[1],36%
same,inhibition,[2],-3%
same,inhibition,[3],36%
same,inhibition,[4],96%
same,inhibition,[5],96%
O=C(O)c1ccc2c(c1)C(SCCNS(=O)(=O)c1ccccc1)c1ccccc1CC2 (stereo unspecified),inhibition,[1],95%
same,inhibition,[2],71%
same,inhibition,[3],95%
same,inhibition,[4],68%
same,inhibition,[5],68%
O=C(O)Cc1ccc2c(c1)C(SCCNS(=O)(=O)c1ccccc1)c1ccccc1CO2 (stereo unspecified),inhibition,[1],84%
same,inhibition,[2],30%
same,inhibition,[4],13%
O=C(O)c1ccc2c(c1)C(SCCNC(=O)c1ccccc1)c1ccccc1CO2 (stereo unspecified),Aggregation,[6],68.3%
same,Platelet aggregation,[7],68.3%
same,inhibition,[1],92%
same,inhibition,[2],69%
same,inhibition,[3],92%
same,inhibition,[4],63%
same,inhibition,[5],63%
COc1ccc(OC)c(S(=O)(=O)NCCSC2c3ccccc3COc3ccc(C(=O)O)cc32)c1 (stereo unspecified),inhibition,[1],92%
same,inhibition,[2],66%
same,inhibition,[3],92%
same,inhibition,[4],62%
same,inhibition,[5],62%
O=C(O)c1ccc2c(c1)C(SCCNC(=O)c1ccccc1O)c1ccccc1CO2 (stereo unspecified),Aggregation,[6],64.5%
same,Platelet aggregation,[7],64.5%
same,inhibition,[1],99%
same,inhibition,[2],90%
same,inhibition,[3],99%
same,inhibition,[4],53%
same,inhibition,[5],53%
CCCCCC(=O)NCCSC1c2ccccc2COc2ccc(C(=O)O)cc21 (stereo unspecified),inhibition,[1],88%
same,inhibition,[2],51%
same,inhibition,[3],88%
same,inhibition,[4],4%
same,inhibition,[5],4%
O=C(O)c1ccc2c(c1)C(SCCNS(=O)(=O)c1ccccc1)c1ccccc1CS2 (stereo unspecified),Platelet aggregation,[8],0%
same,Aggregation,[6],0%
same,Aggregation,[9],0%
same,Platelet aggregation,[7],0%
same,inhibition,[1],99%
same,inhibition,[2],94%
same,inhibition,[3],99%
O=C(O)c1ccc2c(c1)C(SCCNS(=O)(=O)c1ccccc1)c1cc(Br)ccc1CO2 (stereo unspecified),Aggregation,[10],41%
same,Platelet aggregation,[7],41%
same,inhibition,[1],94%
same,inhibition,[2],75%
same,inhibition,[3],94%
same,inhibition,[4],6%
same,inhibition,[5],6%
O=C(O)c1ccc2c(c1)C(SCCNS(=O)(=O)c1ccc([N+](=O)[O-])cc1)c1ccccc1CO2 (stereo unspecified),inhibition,[1],90%
same,inhibition,[2],58%
same,inhibition,[3],90%
same,inhibition,[4],41%
same,inhibition,[5],41%
COc1ccccc1C(=O)NCCSC1c2ccccc2COc2ccc(C(=O)O)cc21 (stereo unspecified),inhibition,[1],97%
same,inhibition,[2],86%
same,inhibition,[3],97%
O=C(O)c1ccc2c(c1)C(SCCNS(=O)(=O)c1ccccc1[N+](=O)[O-])c1ccccc1CO2 (stereo unspecified),inhibition,[1],99%
same,inhibition,[2],72%
same,inhibition,[3],99%
same,inhibition,[4],72%
same,inhibition,[5],79%
COc1cc(C(=O)NCCSC2c3ccccc3COc3ccc(C(=O)O)cc32)cc(OC)c1OC (stereo unspecified),inhibition,[1],87%
same,inhibition,[2],50%
same,inhibition,[3],87%
same,inhibition,[4],92%
same,inhibition,[5],92%
O=C(O)c1ccc2c(c1)C(SCCNS(=O)(=O)c1ccccc1)c1ccccc1C=C2 (stereo unspecified),inhibition,[1],97%
same,inhibition,[2],67%
same,inhibition,[3],97%
same,inhibition,[4],74%
same,inhibition,[5],74%
O=C(O)c1ccc2c(c1)C(SCCNS(=O)(=O)c1cccc([N+](=O)[O-])c1)c1ccccc1CO2 (stereo unspecified),inhibition,[1],93%
same,inhibition,[2],83%
same,inhibition,[3],93%
same,inhibition,[4],54%
same,inhibition,[5],54%
O=C(O)c1ccc2c(c1)C(SCCNS(=O)(=O)c1cccnc1)c1ccccc1CO2 (stereo unspecified),inhibition,[1],93%
same,inhibition,[2],67%
same,inhibition,[3],93%
O=C(O)c1ccc2c(c1)C(SCCNC(=O)C1CCCCC1)c1ccccc1CO2 (stereo unspecified),inhibition,[1],66%
same,inhibition,[2],20%
same,inhibition,[3],66%
same,inhibition,[4],19%
same,inhibition,[5],19%
COc1ccc(C(=O)NCCSC2c3ccccc3COc3ccc(C(=O)O)cc32)c(OC)c1OC (stereo unspecified),inhibition,[1],97%
same,inhibition,[2],82%
same,inhibition,[3],97%
O=C(NCCSC1c2ccccc2COc2ccc(C(=O)O)cc21)NCc1ccccc1 (stereo unspecified),inhibition,[1],87%
same,inhibition,[2],47%
same,inhibition,[3],87%
same,inhibition,[4],41%
same,inhibition,[5],41%
O=C(O)c1ccc2c(c1)C(SCCNS(=O)(=O)c1ccccc1)c1ccccc1OC2 (stereo unspecified),inhibition,[1],64%
same,inhibition,[2],21%
same,inhibition,[3],64%
same,inhibition,[4],53%
same,inhibition,[5],53%
CN(CCSC1c2ccccc2COc2ccc(C(=O)O)cc21)S(=O)(=O)c1ccccc1 (stereo unspecified),inhibition,[1],92%
same,inhibition,[2],73%
same,inhibition,[3],92%
O=C(O)c1ccc2c(c1)C(SCCNS(=O)(=O)c1ccc(F)cc1)c1ccccc1CO2 (stereo unspecified),inhibition,[1],93%
same,inhibition,[2],61%
same,inhibition,[3],93%
same,inhibition,[4],33%
same,inhibition,[5],33%
"O=C(O)c1ccc2c(c1)C(SCCNS(=O)(=O)/C=C/c1ccccc1)c1ccccc1CO2 (single isomer, unassigned; (+))",Platelet aggregation,[8],2.3%
same,Platelet aggregation,[11],10.7%
same,Platelet aggregation,[7],0%
COc1ccc(S(=O)(=O)NCCSC2c3ccccc3COc3ccc(C(=O)O)cc32)cc1 (stereo unspecified),inhibition,[1],93%
same,inhibition,[2],83%
same,inhibition,[3],93%
same,inhibition,[4],75%
same,inhibition,[5],75%
O=C(O)c1ccc2c(c1)C(SCC/N=C(\S)NCc1ccccc1)c1ccccc1CO2 (stereo unspecified),Aggregation,[9],61.7%
same,Platelet aggregation,[7],61.7%
same,inhibition,[1],96%
same,inhibition,[2],80%
same,inhibition,[3],96%
same,inhibition,[4],92%
same,inhibition,[5],92%
Cc1ccsc1C(=O)NCCSC1c2ccccc2COc2ccc(C(=O)O)cc21 (stereo unspecified),inhibition,[1],94%
same,inhibition,[2],81%
same,inhibition,[3],94%
same,inhibition,[4],79%
same,inhibition,[5],79%
O=C(O)c1cccc(C(SCCNS(=O)(=O)c2ccccc2)c2ccccc2)c1 (stereo unspecified),inhibition,[1],85%
same,inhibition,[2],41%
same,inhibition,[3],85%
same,inhibition,[4],19%
same,inhibition,[5],19%
